Results published in the Kinase Knowledgebase extract (Sharma et al. 2016).

Target: EGFR (Wistar rat) (UniProt P00533)
Conditions: hepatocyte, dose or concentration not given here

Chain of EGFR (Wistar rat) (P00533 whole entry, looked up): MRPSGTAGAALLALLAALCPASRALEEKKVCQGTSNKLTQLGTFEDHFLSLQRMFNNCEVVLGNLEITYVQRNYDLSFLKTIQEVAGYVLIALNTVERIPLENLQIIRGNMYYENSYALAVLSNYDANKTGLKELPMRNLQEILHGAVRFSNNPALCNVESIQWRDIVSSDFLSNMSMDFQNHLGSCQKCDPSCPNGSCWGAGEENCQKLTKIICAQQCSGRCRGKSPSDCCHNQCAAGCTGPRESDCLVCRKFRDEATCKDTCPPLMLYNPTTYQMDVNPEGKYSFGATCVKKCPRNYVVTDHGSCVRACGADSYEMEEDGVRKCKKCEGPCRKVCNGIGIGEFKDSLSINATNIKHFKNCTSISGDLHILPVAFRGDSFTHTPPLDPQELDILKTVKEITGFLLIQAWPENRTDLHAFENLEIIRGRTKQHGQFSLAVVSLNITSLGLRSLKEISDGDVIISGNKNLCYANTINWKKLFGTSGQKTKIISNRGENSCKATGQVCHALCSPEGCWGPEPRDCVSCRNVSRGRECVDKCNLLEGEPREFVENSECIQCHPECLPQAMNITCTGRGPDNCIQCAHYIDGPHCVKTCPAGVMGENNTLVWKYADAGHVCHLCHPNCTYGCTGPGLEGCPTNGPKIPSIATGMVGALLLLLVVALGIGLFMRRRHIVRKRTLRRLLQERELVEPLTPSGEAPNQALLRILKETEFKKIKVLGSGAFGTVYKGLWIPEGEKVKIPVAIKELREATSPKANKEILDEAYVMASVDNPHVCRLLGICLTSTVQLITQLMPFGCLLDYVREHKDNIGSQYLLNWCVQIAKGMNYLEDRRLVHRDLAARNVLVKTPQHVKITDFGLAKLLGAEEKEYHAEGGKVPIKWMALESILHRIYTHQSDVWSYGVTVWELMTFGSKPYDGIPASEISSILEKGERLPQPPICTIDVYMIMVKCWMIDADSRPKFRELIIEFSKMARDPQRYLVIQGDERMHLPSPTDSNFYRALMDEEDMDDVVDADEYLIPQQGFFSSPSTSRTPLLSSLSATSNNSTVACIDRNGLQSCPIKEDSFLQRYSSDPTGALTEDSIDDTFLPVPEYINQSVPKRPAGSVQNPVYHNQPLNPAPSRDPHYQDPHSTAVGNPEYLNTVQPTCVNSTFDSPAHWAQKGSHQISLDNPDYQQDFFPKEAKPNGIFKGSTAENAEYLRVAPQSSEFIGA

COc1cccc(-c2cc(=O)c3ccccc3o2)c1N
DNA synthesis: 16%
